Experimental findings from publication PMC11462456 (Chemical Science, 2024) are described below.

Each structure is given as a SMILES string.

A short description of series [1]: Parallel artificial membrane permeability assay (PAMPA). The class given is in vitro ADME. As to conditions: 10 uM, pH 7.4, four hours. Here is the method: 4.9 Study of membrane permeability of single-ligand and dual-ligand PROTACs Parallel artificial membrane permeability assay (PAMPA) is a non-cell based assay designed to predict passive, transcellular permeability of a test compound through a PVDF membrane filter pretreated with lipid. At a given pH a log Pe (log of effective permeability) can be determined by a UV spectrophotometer. […]
is carried out in the company of Eurofins Panlabs, 6 Research Park Dr. St. Charles, MO 63304, U.S.A. The results are attached as an excel file.
Sample preparation The test compound is prepared from a 10 mM DMSO stock solution and diluted to a single final concentration of 10 uM in donor buffer. The donor solution is placed in contact with the acceptor buffer at a single pH = 7.4 with the membrane in between and the sandwich is incubated for four hours at ambient temperature.
Reference compounds Ketoprofen, propranolol and furosemide. The reference compounds yield log Pe (10-6 cm/s) values that cover the typical range of the assay from high (Propranolol), mid (Ketoprofen) to low (Furosemide) permeability.
Analytical method UV/Vis spectrophotometer
The UV absorption is measured from 250 to 500 nm for both donor and acceptor plate.
Adjustments to the method may be made as necessary to improve detection or UV spectrum.
Data analysis The amount of compound UV absorbance is determined in the donor plate prior to starting the experiment for each compound. The UV absorbance was measured from the (1 picture or pasted object on this page, not shown here) […]
donor and acceptor plate after a four hour incubation time. The log Pe was calculated using […]
4.10 Statistical Analysis.
Data analyses were performed using GraphPad Prism 9 software. The results are presented as the mean ± standard deviation (SD) or standard error of mean (SEM). All statistical analyses were evaluated with one-way analysis of variance (ANOVAs), or unpaired Student’s t-test. The difference was considered statistically significant when P < 0.05.
(PAMPA measures passive passage across an artificial lipid membrane.)

Series [2] is described as follows: Mouse serum stability by HPLC-MS/MS. As to conditions: after 2 hours of incubation, 37°C. The class given is in vitro ADME. Here is the method: Figure S7. Dual-ligand PROTACs inhibit cancer cell growth in 2D and 3D in vitro cell cultures.
(A) 2D-cultured SKOV-3 were treated with an escalating dose of PROTACs for 48h. Cell viability was assessed by CellTiter-Glo 2D assay. EC50 values were calculated from fitted curves. (B) HCT116 spheroids were treated with an escalating dose of PROTACs for 72h (equivalent volume of DMSO as control group). Representative transmitted microscopy images at the dose of 10nM. (C) Cell viability was assessed by Cell Titer-Glo 3D assay. Both experiments were performed as three independent replicates. (D) 2D-cultured A549 cells were treated with an escalating dose of PROTACs equipped with similar linker length as dual-ligand PROTACs. Cell viability was assessed by CellTiter-Glo 2D assay.
EC50 values were calculated from fitted curves.
Eurofins Panlabs, 6 Research Park Dr. St. Charles, MO 63304, U.S.A. Compounds were incubated in the mouse serum at 37°C for certain time, and at 0, 0.5, 1, 1.5, 2 hours post incubation, the mouse serum was analyzed by HPLC-MS/MS according to the reference: Di, L. et al. (2005), Int. J. Pharm., 297 (1-2): 110-119. […] Samples were analyzed by HPLC-MS/MS and peak areas were recorded for each analyte. The area of precursor compound remaining after each of the time points relative to the amount remaining at time zero, expressed as percent, is calculated. […]

The subject of the next series is A549 xenograft. Briefly: A549 xenograft mouse model, tumor growth. Particulars: i.p. Type of series: in vivo. How it is done:
4.7 Therapeutic anti-tumor evaluation
Animal experiments were carried out in accordance with the regulatory guidelines of the Ethics Committee of the Ghent University Hospital. 30 female Swiss Nude Immunodeficient mice (Crl:NU(Ico)-Foxn1nu) of 5 weeks-6 weeks old (Charles River) were subcutaneously injected with […] A549 (1:1 serum free DMEM medium: Matrigel (Corning)). 10 days post inoculation ,mice were randomized into five groups (6 mice/group) with equal average tumor volume and treatment was started: (1) the control group: Vehicle(20% PEG400 and 5% […]
2J2V group (0.1 mg/kg), (5) the 2J2V group(0.5 mg/kg).Mice were treated on Day 0, Day 2, Day 4, Day 11, Day 18 by intraperitoneal injection. Tumor growth was monitored every 3 days by caliper, and the tumor volume was calculated as 1/2 × length × width2. Body weight was monitored every 3 days by weighing scale. […]
The reduced […]
proteins were alkylated with 40 mM iodoacetamide (IAA) in the dark for 30 minutes. Then samples were acidified with 1.2% aqueous phosphoric acid and mixed with 6× volumes of 90% methanol, 100 mM TEAB, pH 7.1 (S-Trap binding buffer). The samples were loaded onto the (1 picture or pasted object on this page, not shown here)

In the next series the test system is BRD2, BRD3 and BRD4. The series is described as follows: Mass spectrometry proteomics in A549 cells. Type of series: cell-based, human. Particulars: 10 nM, 4 hours, 7592 proteins quantified. Here is the method:
A549 cells in DMEM medium were seeded at 1×10^6 cells on a 6-well plate 24 h before […]
volume of DMSO. After 4 h, the cells were digested by trypsin, centrifuged at 250g for 5min and washed three times with PBS. Cells were resuspended in lysis buffer (50 mM triethylammonium bicarbonate (TEAB), 5% SDS (pH 7.5)), then sonicated, and clarified with centrifugation of 13,000g for 8 minutes. Each sample was reduced with 20 mM DTT, then warmed the solution first at 95 °C for 10 minutes and then at 60 °C for 1 hour. The reduced proteins were alkylated with 40 mM iodoacetamide (IAA) in the dark for 30 minutes. Then samples were acidified with 1.2% aqueous phosphoric acid and mixed with 6× volumes of 90% methanol, 100 mM TEAB, pH 7.1 (S-Trap binding buffer). The samples were loaded onto the (1 picture or pasted object on this page, not shown here)

In the case of `Cc1sc2c(c1C)C(c1ccc(Cl)cc1)=N[C@@H](CC(=O)NCCOCCOCCNC(=O)C[C@H](NC(=O)COCCOCCOCCOCCn1cc(CCC(=O)N[C@@H](CC(=O)NCCOCCOCCNc3cccc4c3C(=O)N(C3CCC(=O)NC3=O)C4=O)C(=O)NCCOCCOCCNc3cccc4c3C(=O)N(C3CCC(=O)NC3=O)C4=O)nn1)C(=O)NCCOCCOCCNC(=O)C[C@@H]1N=C(c3ccc(Cl)cc3)c3c(sc(C)c3C)-n3c(C)nnc31)c1nnc(C)n1-2` (stereo partly drawn) [2J2P], the membrane permeability entry in series [1] was “high membrane permeability”.
Take `Cc1ncsc1-c1ccc(C(C)NC(=O)C2CC(O)CN2C(=O)C(NC(=O)COCCOCCNC(=O)CC(NC(=O)CCc2cn(CCOCCOCCOCCOCC(=O)NC(CC(=O)NCCOCCOCCNC(=O)CC3N=C(c4ccc(Cl)cc4)c4c(sc(C)c4C)-n4c(C)nnc43)C(=O)NCCOCCOCCNC(=O)CC3N=C(c4ccc(Cl)cc4)c4c(sc(C)c4C)-n4c(C)nnc43)nn2)C(=O)NCCOCCOCC(=O)NC(C(=O)N2CC(O)CC2C(=O)NC(C)c2ccc(-c3scnc3C)cc2)C(C)(C)C)C(C)(C)C)cc1` (stereo not drawn) [2J2V]: the membrane permeability entry in series [1] is “very limited membrane permeability”. For the same molecule, the “compound remained intact in mouse serum” value in series [2] turned out to be 88%. Further, the tumor growth entry in the series with A549 xenograft (higher dose of 0.5 mg kg−1, Swiss nude mice) was “potent reduction in tumor growth”. In addition, the “BET protein abundance change in proteome” value with BRD2, BRD3 and BRD4 is given as “top proteins being degraded the most”.
As for `Cc1ncsc1-c1ccc(CNC(=O)C2CC(O)CN2C(=O)C(NC(=O)COCCOCCOCCNC(=O)CC2N=C(c3ccc(Cl)cc3)c3c(sc(C)c3C)-n3c(C)nnc32)C(C)(C)C)cc1` (stereo not drawn) [MZ1, reference compound], the membrane permeability result in series [1] is on record as “very limited membrane permeability”. The “compound remained intact in mouse serum” value in series [2] is reported as 95%. The anti-tumor activity result in the series on A549 xenograft (0.5 and 0.1 mg kg−1, Swiss nude mice) was “did not exhibit significant anti-tumor activity”. Further, the “BET protein abundance change in proteome” value in the series with BRD2, BRD3 and BRD4 is “much lower change in BET protein abundance”.
